Data taken from paper PMC9268102, “Design, Synthesis and Biological Evaluation of 1,3,5-Triazine Derivatives Targeting hA1 and hA3 Adenosine Receptor” (Molecules, 2022).

Legend:
Type in all cases: cell-based
[1] = test system: NCI-H1299 cells; assay: Cell viability (MTS) assay in NCI-H1299 cells; settings: Homo sapiens, 48 h
Description: To test the effect of the compounds in terms of cell growth regulation in lung cancer cell lines such as A549 and NCI-H1299 cells, these cells were treated in 96-well plates for 48 h with the compounds at concentrations ranging from 0 μM to 100 μM. […] Therefore, we decided to perform an additional experiment with 9c.
A549 and NCI-H1299 cells were seeded in 96-well plates at a density of 1 × 10^5 cells per well for 24 h before being exposed to compounds at various concentrations. After 48 h of compound treatment, the CellTiter 96 AQueous One Solution Cell Proliferation Assay Kit (Promega, Madison, WI, USA) was used to conduct a cell viability assay. The cells were incubated with solution reagents for 2 h at 37 °C before being measured for absorbance at 490 nm using a Synergy HTX Multi-Mode microplate reader (BioTek Instruments, Inc., Winooski, VT, USA).

[2] = test system: A549 cells; assay: Mitochondrial membrane potential by TMRM flow cytometry; settings: 48 h, control 93.8%
Description: ROS-induced oxidative stress can cause the rapid depolarization of the inner mitochondrial membrane potential (ΔΨm) and, as a result, impairment of oxidative phosphorylation. Using tetramethylrhodamine methyl ester (TMRM) measurements, we investigated how mitochondrial membrane potential was affected by 9c. A549 cells were exposed to 9c following incubation with TMRM. Afterward, flow cytometry was employed to calculate the intensity of TMRM binding in the healthy membrane.
(§1) A549 cells were incubated with a fluorescent indicator, specifically 100 nM tetramethylrhodamine methyl ester perchlorate (TMRM, Thermo Fisher Scientific, Waltham, MA, USA), to determine the mitochondrial membrane potential. The A549 cells treated with the compound were harvested after 48 h, washed in PBS, and re-suspended in FACS buffer (PBS supplemented with 2 percent fetal bovine serum). A flow cytometer (BD FACSVerse, BD Biosciences, San Jose, CA, USA) and the FlowJo software (FlowJo LLC, Ashland, OR, USA) were used to analyze the cells. […] Intracellular fluorescence measurements involved the use of a flow cytometer (BD FACSVerse, BD Biosciences, San Jose, CA, USA) and the FlowJo software (Version 10, TreeStar, Ashland, OR, USA).

[3] = test system: A549 cells; assay: Intracellular ROS by H2DCF-DA flow cytometry; settings: 48 h, control 1.26%
Source text: Although reactive oxygen species (ROS) play an important role in regulating normal cellular processes, abnormal ROS levels contribute to the development of a variety of human diseases, including cancer. Because of their accelerated metabolism, cancer cells have higher ROS levels than normal cells. Nevertheless, the high ROS content of cancer cells makes them more susceptible to oxidative stress-induced cell death, which can be used to target cancer cells selectively. Flow cytometry was used to determine whether 9c induces ROS generation in A549 cells by examining the results. The experiment was conducted with H2DCF-DA as a fluorescent probe. […] Next, we determined the effect of 9c in regulating mitochondrial ROS.
as §1, with “serum).” for “serum). A flow cytometer (BD FACSVerse, BD Biosciences, San Jose, CA, USA) and the FlowJo software (FlowJo LLC, Ashland, OR, USA) were used to analyze the cells.”

## COc1cc(Nc2nc(N)nc(-c3ccc(O)cc3)n2)ccc1Cl [Compound 9c, 4-{4-amino-6-[(4-chloro-3-methoxyphenyl)amino]-1,3,5-triazin-2-yl}phenol]
[1]
  viability at 25 µM: 68.8%
[2]; 20 μM
  TMRM-positive intensity, TMRM (+): 74.6%
[2]; 40 μM
  TMRM-positive intensity, TMRM (+): 52.3%
[3]; 20 μM
  ROS level (H2DCF-DA positive): 7.31%
[3]; 40 μM
  ROS level (H2DCF-DA positive): 22.6%
